Values joined by “and” are separate entries in the source; they are usually repeats but may differ in a detail not shown here. Identical values can stand only once. Like-named read-outs stand apart in the source and are kept apart here.
Assays:
healthy volunteers [1] = assay: Hyperinsulinemic euglycemic clamp (glucose utilization M, insulin sensitivity M/I); assay type: in vivo, human
Experimental: Peripheral sensitivity to glucose was assessed by the hyperinsulinemic euglycemic clamp technique. Subjects were admitted to the GCRC in the afternoon prior to the clamp procedure and maintained on a eucaloric diet (50% carbohydrate, 30% fat, and 20% protein). After an overnight fast, an intravenous catheter was placed in the antecubital vein for infusion of glucose and insulin. A second catheter for blood sampling was inserted in a dorsal vein of the hand in a retrograde fashion. The hand was placed into a 50°C warming box to "arterialize" the samples [20]. After baseline blood samples were obtained, a primed, continuous infusion of regular insulin (40 mU/m^2/min) was started, followed by a constant infusion of 20% dextrose at a variable rate, based on 5-minute measurements of blood glucose, in order to maintain blood glucose concentrations at each subject's baseline level ± 5%. Infusion continued for a total of 180 minutes.
Glucose utilization (M) was calculated as the average glucose infusion rate (milligrams of glucose/kilograms of FFM/minute) during the last 60 minutes of the infusion (i.e. steady state portion). FFM was derived from the baseline evaluation by dual energy X-ray absorptiometry (DXA).
During the final 60 minutes of the insulin clamp procedure, samples were obtained at 10 minutes intervals to determine insulin concentrations. M divided by the average insulin concentration in the final 60 minutes (I), which represents the amount of glucose metabolized per unit of insulin, was used as the primary measure of insulin sensitivity. […] Fasting serum glucose and homeostasis model assessment of insulin resistance (HOMA-IR), a widely used marker of insulin sensitivity, were assessed prior to the insulin clamp procedure at each of the inpatient study visits.
We then multiplied this value by 10^6 for ease of interpretation.

healthy volunteers [2] = assay: Fasting serum glucose, HOMA-IR and body weight at inpatient visits; assay type: in vivo, human
Experimental: Body composition, including fat-free mass (FFM), was assessed at baseline using dual x-ray absorptiometry (Hologic-QDR 4500W, Hologic Co, Bedford, MA, intra-subject CV < 2%). BMI was assessed during each inpatient admission and was calculated as the weight in kilograms/height in meters squared.
During the final 60 minutes of the insulin clamp procedure, samples were obtained at 10 minutes intervals to determine insulin concentrations. M divided by the average insulin concentration in the final 60 minutes (I), which represents the amount of glucose metabolized per unit of insulin, was used as the primary measure of insulin sensitivity. During the second and third inpatient visits, the morning dose of IDV (and AG for the third inpatient visit) was given immediately prior to the beginning of the insulin clamp procedure. Fasting serum glucose and homeostasis model assessment of insulin resistance (HOMA-IR), a widely used marker of insulin sensitivity, were assessed prior to the insulin clamp procedure at each of the inpatient study visits.

healthy volunteers [3] = assay: Safety assessment in healthy volunteers; assay type: in vivo, human
From the text: There were no serious adverse events. Three subjects developed transaminitis. In one subject (as previously mentioned), an AST elevation 3 times the upper limit of normal (Grade 2) after 3 days of IDV required study discontinuation. Three subjects were noted to have mild elevations in bilirubin. […] One patient reported an episode of vomiting and one subject reported dyspepsia after dose administration. All laboratory abnormalities and symptoms normalized after discontinuation of the study drugs. With the exception of the Grade 2 transaminites, all adverse events occurred during the co-administration of IDV and AG.

[4] = for Cmin: GM (95%CI)
healthy volunteers [5] = conditions: cited from earlier work
clinical = conditions: human, plasma, oral

Question: Which results are given for CC(C)(C)NC(=O)[C@@H]1CN(Cc2cccnc2)CCN1C[C@@H](O)C[C@@H](Cc1ccccc1)C(=O)N[C@H]1c2ccccc2C[C@H]1O [IDV, Indinavir]?
Answer: average decrease in insulin sensitivity (M/I) compared to baseline (healthy volunteers [1]; after 3 days of IDV 800 mg q8h, n = 11, p = 0.03): 14.8 ± 5.9% and 15%; insulin sensitivity (M/I), mean (healthy volunteers [1]; after 3 days of IDV, n = 11, mean ± SEM, baseline 0.113 ± 0.012): 0.096 ± 0.014 mg/kg FFM/min per μU/ml of insulin; average glucose utilization (M) (healthy volunteers [1]; after 3 days of IDV, n = 11, mean ± SEM, baseline 7.73 ± 0.75, p = 0.005): 6.32 ± 0.78 mg/kg FFM/min; M/I divided by the IDV AUC2–3 (insulin sensitivity per unit of plasma IDV) (healthy volunteers [1]; post hoc, 10 subjects, IDV alone vs IDV + AG, p = 0.03): 60.9 ± 15.4 mg Glucose·10^6/kg FFM/min/μU/ml of insulin/ng·hr/mL IDV; M (multiplied times 10^6) divided by the IDV AUC2–3 (healthy volunteers [1]; post hoc, 10 subjects, IDV alone vs IDV plus AG, p = 0.05): 4240.6 ± 1180.0 mg Glucose·10^6/kg FFM/min/ng·hr/mL IDV; Glucose utilization (M), mean (healthy volunteers [1]; second (IDV alone) vs third (IDV + AG) clamp, ten subjects, mean ± SEM, p = 0.62): 6.68 ± 0.76 mg/kg FFM/min; insulin sensitivity (M/I), mean (healthy volunteers [1]; second (IDV alone) vs third (IDV + AG) clamp, ten subjects, mean ± SEM, p = 0.72): 0.102 ± 0.013 mg/kg FFM/min per μU/ml of insulin; Fasting glucose (healthy volunteers [2]; before vs after 2 weeks of AG, p = 0.65): 93.0 ± 1.4 mg/dL; HOMA-IR (healthy volunteers [2]; before vs after 2 weeks of AG, p = 0.95): 1.4± 0.25; HOMA-IR (healthy volunteers [2]; second admission (after 3 days IDV), baseline 1.34 ± 0.32, p = 0.97): 1.34 ± 0.23; Fasting glucose (healthy volunteers [2]; second admission (after 3 days IDV), baseline 92.4 ± 1.8, p = 0.27): 95.0 ± 2.4 mg/dL; tolerability (healthy volunteers [3]; healthy volunteers): well tolerated; AST elevation (healthy volunteers [3]; one subject, Grade 2, after 3 days of IDV, required study discontinuation): 3 times the upper limit of normal; difference in IDV AUC2–3 (IDV alone vs IDV and AG) ([4]; 10 subjects, p = 0.22): 430 ± 330 ng·h/mL; Cmin ([4]; IDV + AG (Day 22), n = 13): 62.78 (39.72–99.24) ng/mL; Cmin ([4]; IDV alone (Day 7), n = 13): 61.97 (42.72–89.88) ng/mL; AUC0–8 Day 22/Day 7 Geometric Mean Ratio (90% CI) ([4]; IDV with vs without AG, n = 13): 0.89 (0.72–1.08); Cmax Day 22/Day 7 Geometric Mean Ratio (90% CI) ([4]; IDV with vs without AG, n = 13): 1.00 (0.77–1.29); tmax Day 22/Day 7 Geometric Mean Ratio (90% CI) ([4]; IDV with vs without AG, n = 13): 0.75 (0.53–1.06); decrease in insulin sensitivity (healthy volunteers [5]; healthy volunteers, IDV 800 mg q 8 hours): 17%; decrease in insulin sensitivity (healthy volunteers [5]; single dose of 1200 mg): 34%; AUC (clinical): 1920 ± 483 ng·h/mL; AUC (clinical; 800 mg): 2350 ± 389 ng·h/mL; Cmax (clinical; 800 mg): 5620 ng/mL; Tmax (clinical; 800 mg): 58.8 min
